Laboratory results reported in ChEMBL document CHEMBL1153023, “Lathyrane diterpenes from Euphorbia lathyris as modulators of multidrug resistance and their crystal structures” (Bioorg Med Chem, 2009).

Experiments:
MCF7 = assay: Cytotoxicity against human MCF7 cells after 48 hrs by SRB assay; type: cell-based; conditions: mcf7, 48 h
MCF7/ADM = assay: Reversal of p-gp-mediated multidrug-resistance in human MCF7/ADM cells assessed as enhancement intensity at 10 ug/mL after 48 hrs by SRB assay relative to adriamycin; type: cell-based
[1] = Reversal of p-gp-mediated multidrug-resistance in human MCF7/ADM cells after 48 hrs by SRB assay; type: cell-based
MCF/ADR = assay: Reversal of P-gp-mediated multidrug resistance in human MCF/ADR cells assessed as reversal fold after 48 hrs by SRB assay relative to control; type: cell-based
[2] = Octanol-water partition coefficient, log P of the compound; type: physicochemical

Structure (SMILES) | Activity (MCF7) | Activity (MCF7/ADM) [%] | IC50 [1] [µg/mL] | Ratio IC50 (MCF/ADR) | logP [2]
CC(=O)O[C@@H]1[C@H]2[C@@H](OC(=O)Cc3ccccc3)[C@@H](C)C[C@]2(OC(C)=O)C(=O)/C(C)=C/[C@@H]2[C@H](CC[C@]13CO3)C2(C)C | Not Active | 22 | 246 | 4.4 | 5.6
C=C1CC[C@H]2[C@@H](/C=C(\C)C(=O)[C@@]3(OC(C)=O)C[C@H](C)[C@H](OC(=O)c4ccccc4)[C@@H]3[C@H]1OC(C)=O)C2(C)C |  | 25 | 165 | 6.57 | 6.4
CC(=O)OC/C1=C\C[C@H]2[C@@H](/C=C(\C)C(=O)[C@@]3(OC(C)=O)C[C@H](C)[C@H](OC(=O)c4ccccc4)[C@@H]3[C@H]1OC(C)=O)C2(C)C (relative stereo) | Not Active | 15 | 248 | 4.36 | 6.1
CC(=O)OC/C1=C/[C@H]2[C@@H](OC(=O)/C=C/c3ccccc3)[C@@H](C)C[C@]2(OC(C)=O)C(=O)/C(C)=C/[C@@H]2[C@H](CC1)C2(C)C (relative stereo) | Not Active | 54 | 105 | 10.3 | 5.8
C=C1[C@@H](OC(=O)c2ccccc2)C[C@H]2[C@@H](/C=C(\C)C(=O)[C@@]3(OC(C)=O)C[C@H](C)[C@H](OC(=O)c4ccccc4)[C@@H]3[C@H]1OC(C)=O)C2(C)C | Not Active | 34 | 84.3 | 12.8 | 7.9
COc1ccc(CCN(C)CCCC(C#N)(c2ccc(OC)c(OC)c2)C(C)C)cc1OC (configuration not stated) [VERAPAMIL] |  | 19 | 367 | 2.95 | 
